Test results published in US20240058321A1, “FARNESYL-TRANSFERASE INHIBITORS AND KRAS INHIBITORS FOR TREATING KRAS MUTANT CANCERS” (SEMMELWEIS EGYETEM, priority 2021, published 2024).
Where two headings read alike, the source gives them in different places.

Key:
A549 = experiment: 2D combinational test (SRB growth inhibition, six days); format: cell-based, human
From the text: (§1) OD values were normalized to control. […] Data shown are results of three independent experiments.

HCT116 = experiment: as above; format: cell-based, human
From the text: as §1

SNUC2B = experiment: as above; format: cell-based, human
From the text: as §1

SW1990 = experiment: as above; format: cell-based, human; conditions: SW1990
From the text: as §1

SW480 = experiment: as above; format: cell-based, human
From the text: as §1

H838 KRAS G12D = experiment: as above; format: cell-based, human
From the text: as §1

PF906 = experiment: as above; format: cell-based, human
From the text: as §1

H358 = experiment: as above
Experimental: (§4) H358, SW1573, H1792, MIAPACA2, SW1990, SNUC2B, SW480, A549 and HCT116 were purchased from ATCC, while SW48 KRAS G12C colorectal cell line and H838 KRAS G12D lung cell line was bought from Horizon Discovery Ltd. Most of the cell lines were heterozygous for mutant KRAS, as in human cases used to occur, but we also used cell lines with homozygous mutant KRAS.
(§5) Cells were cultured in DMEM (Lonza, Switzerland; with 4500 mg/dm3 glucose, pyruvate and L-glutamine) supplemented with 10% fetal calf serum (EuroClone) and 1% penicillin-streptomycin-amphotericin (Lonza) in tissue culture flasks in a humidified 5% CO2 atmosphere at 37° C.
(§6) For in vitro experiments drugs were dissolved in DMSO in 10 mM stock concentration and stored at −80° C.
Cells that reached 70-80% confluency were trypsinized and counted using Luna II Automated Cell Counter. Cells were plated in 5000-10000 cells/well density (depending on the growth rate of the given cell line) on a 24 well plate. Next day the medium was replaced to fresh medium supplemented with the inhibitors. After 6 days, the wells were washed with DPBS (Lonza) and the cells were fixed by 10% trichloroacetic acid and stained with Sulphorodamine-B (SRB) (Sigma) dye for 15 minutes. […] Protein-bound SRB was then dissolved in 10 mM Tris buffer (pH=7,4) and OD was measured at 570 nm using a microplate reader (EL800, BioTec Instruments, Winooski, VT). […]

SW1573 [1] = experiment: as above; conditions: SW1573
Experimental: as §4, §5, §6
Cells that reached 70-80% confluency were trypsinized and counted using Luna II Automated Cell Counter. Cells were plated in 5000-10000 cells/well density (depending on the growth rate of the given cell line) on a 24 well plate. Next day the medium was replaced to fresh medium supplemented with the inhibitors. After 6 days, the wells were washed with DPBS (Lonza) and the cells were fixed by 10% trichloroacetic acid and stained with Sulphorodamine-B (SRB) (Sigma) dye for 15 minutes. Plates then were repeatedly washed with 1% acetic acid to remove excess dye. Protein-bound SRB was then dissolved in 10 mM Tris buffer (pH=7,4) and OD was measured at 570 nm using a microplate reader (EL800, BioTec Instruments, Winooski, VT). OD values were normalized to control. Transformed data then were used to calculate combinational index (CI) values using Compusyn software as described in https://www.combosyn.com/index.html. Data shown are results of three independent experiments.

SW1573 spheroids = experiment: 3D spheroid growth test; format: cell-based, human
Experimental: Spheroids were generated using polyHEMA coated 96we11 round bottom plates. Briefly, the inner 60 wells of the plate were coated with 60 μl 5 mg/ml polyHEMA dissolved in 96% ethanol. Plates were dried at 60° C. in a plate shaker while shaking, then sterilized with UV. Cells were seeded at 3000 cells/well density at the inner 60 polyHEMA coated wells in 200 μl medium, while the outer wells were filled with DPBS (Lonza) to avoid evaporation. Plates were then centrifugated at 2000 RPM so that cells would be concentrated at the bottom of the well thus enhancing single spheroid formation. Within 24 hours the cells aggregated into spheroids and were treated by adding further 100 μl medium supplemented with the inhibitors. Each concentration group contained three spheroids. Each spheroid was pictured using a ToupCam XW 3MP microscope-camera on the first and sixth day of the treatment. Before imaging, medium was gently suspended so that unattached or dead cells would be removed from the surface of the spheroids. Images then were analysed using ImageJ software with a modified script of [1]. Briefly, the script measures the area of the 2D projections of the spheroids. Results were manually reviewed, then area values were used to calculate radius and volume of spheroids using the formula V=4/3×π×radius^3. Data are shown as results of three independent experiments.

H358 xenografts = experiment: In vivo tumor growth of subcutaneous xenografts; set-up: species or system female SCID mice; conditions: AMG510 5 mg/kg i.p. and/or tipifarnib 40 mg/kg i.p.
Experimental: (§2) H358 and SW1573 human lung adenocarcinoma cells (5×10^6 and 1×10^6, respectively) were subcutaneously injected in female SCID mice. Cells were injected in 200 μl DMEM:Matrigel mixture (ratio 1:1) based on preliminary experiments. When tumor reached approximately 100 mm^3 (H358 7 days, SW1573 26 days after injection), animals were randomized and treated intraperitoneally daily except for weekends. Drugs were dissolved in 60% DPBS, 34% PEG300, 5% DMSO and 1% Tween80. […] Controls received vehicle. Doses were determined based on previous literature, roughly using half of the used per os doses. The subcutaneous tumors were measured with a caliper and tumor volumes were calculated with the formula […] and expressed in mm^3. H358 experiment was terminated after 18 days and SW1573 after 25 days treatment. Tumors were measured upon harvest, then fixed with 4% PFA for histological analyses.
(§3) Animals were the properties of the Department of Experimental Pharmacology, National Institute of Oncology, H-1122, Budapest, Hungary. All experiments were carried out in accordance with the Guidelines for Animal Experiments and were approved for the Department of Experimental Pharmacology in the National Institute of Oncology, Budapest, Hungary.

SW1573 xenografts = experiment: In vivo tumor growth of subcutaneous xenografts; set-up: species or system female SCID mice; conditions: AMG510 25 mg/kg i.p. and/or tipifarnib 40 mg/kg i.p.
Experimental: as §2, §3

SW1573 [2] = experiment: siRNA knockdown experiment (SRB, IC50); format: cell-based, human; conditions: 6-day-long treatment
Experimental: Cells were plated in 2500 and 7500 cells/well density (for non-targeting siRNA and HRAS siRNA treatment, respectively) on a 48we11 plate supplemented with pre-mixed Lipofectamine RNAIMAX Reagent (Thermo Fisher) and OptiMEM (Thermo Fisher) containing 2.5 pmol/well non-targeting or HRAS siRNA according to the manufacturer's instruction (reverse transfection protocol). […] On the 3rd day of the treatment, cells were supplemented with fresh pre-mixed 2.5 pmol/well siRNA diluted in Lipofectamine RNAiMAX Reagent and Optimem according to the manufacturer's instruction. […] OD values were normalized to control, and IC50 values were calculated from transformed data using GraphPad PRISM 5 software.

cancer patients = conditions: cited from earlier work
[3] = 0 nM tipifarnib + 25 nM MRTX1133
[4] = 0 nM tipifarnib + 125 nM MRTX1133
[5] = 0 nM tipifarnib + 625 nM MRTX1133
[6] = concentration range of 1-20 μM, data not shown
[7] = (day 1 = 1), animal 1, in g (unit assumed)
[8] = (day 1 = 1), animal 3, in g (unit assumed)
[9] = (day 1 = 1), animal 4, in g (unit assumed)
[10] = (day 1 = 1), animal 6, in g (unit assumed)
[11] = (day 1 = 1), animal 7, in g (unit assumed)
[12] = (day 1 = 1), group mean, in g (unit assumed)

Which “Relative cell viability (MEAN)” value (A549; 0 nM TIPIFARNIB + 20 μM BI2852) does the source give for `Cn1cnc(Cn2ccc3ccc(CNCc4[nH]c5ccccc5c4[C@H]4NC(=O)c5ccc(O)cc54)cc32)c1` [BI2852] here?
Its value is 0.9541.

And the “Relative cell viability (MEAN)” value (A549; 0 nM TIPIFARNIB + 30 μM BI2852)?
The value was 0.8484.

What about the “Relative cell viability (MEAN)” value (A549; 0 nM TIPIFARNIB + 40 μM BI2852) of the same compound?
The value was 0.7576.

What about the “Relative cell viability (MEAN)” value (HCT116; 0 nM TIPIFARNIB + 10 μM BI2852) of the same compound?
Its value is 0.846.

And the “Relative cell viability (MEAN)” value (HCT116; 0 nM TIPIFARNIB + 20 μM BI2852)?
The value was 0.7086.

What about the “Relative cell viability (MEAN)” value (HCT116; 0 nM TIPIFARNIB + 30 μM BI2852) of the same compound?
Its value is 0.5907.

And the “Relative cell viability (MEAN)” value (SNUC2B; 0 nM tipifarnib + 10 μM BI2852)?
The value was 0.8372.

And the “Relative cell viability (MEAN)” value (SNUC2B; 0 nM tipifarnib + 20 μM BI2852)?
The value was 0.7477.

What about the “Relative cell viability (MEAN)” value (SNUC2B; 0 nM tipifarnib + 30 μM BI2852) of the same compound?
The value was 0.664.

What about the “Relative cell viability (MEAN)” value (SW1990; 0 nM tipifarnib + 10 μM BI2852) of the same compound?
The value was 0.9287.

What about the “Relative cell viability (MEAN)” value (SW1990; 0 nM tipifarnib + 20 μM BI2852) of the same compound?
Its value is 0.8554.

What about the “Relative cell viability (MEAN)” value (SW1990; 0 nM tipifarnib + 30 μM BI2852) of the same compound?
Its value is 0.8187.

What about the “Relative cell viability (MEAN)” value (SW480; 0 nM lonafarnib + 15 μM BI2852) of the same compound?
Its value is 0.8064.

What about the “Relative cell viability (MEAN)” value (SW480; 0 nM lonafarnib + 20 μM BI2852) of the same compound?
The value was 0.6712.

What about the “Relative cell viability (MEAN)” value (SW480; 0 nM lonafarnib + 30 μM BI2852) of the same compound?
Its value is 0.3888.

And the “Relative cell viability (MEAN)” value (SW480; 0 nM tipifarnib + 5 μM BI2852)?
The value was 0.9312.

What about the “Relative cell viability (MEAN)” value (SW480; 0 nM tipifarnib + 10 μM BI2852) of the same compound?
Its value is 0.7461.

And the “Relative cell viability (MEAN)” value (SW480; 0 nM tipifarnib + 15 μM BI2852)?
Its value is 0.5371.

Which results are given for `C#Cc1c(F)ccc2cc(O)cc(-c3ncc4c(N5CC6CCC(C5)N6)nc(OC[C@@]56CCCN5C[C@H](F)C6)nc4c3F)c12` [MRTX1133]?
Relative cell viability (MEAN) (H838 KRAS G12D; [3]): 0.8997; Relative cell viability (MEAN) (H838 KRAS G12D; [4]): 0.7955; Relative cell viability (MEAN) (H838 KRAS G12D; [5]): 0.6909; Relative cell viability (MEAN) (PF906; [3]): 0.716; Relative cell viability (MEAN) (PF906; [4]): 0.625; Relative cell viability (MEAN) (PF906; [5]): 0.574; Relative cell viability (MEAN) (SNUC2B; 0 nM tipifarnib + 50 nM MRTX1133): 0.739; Relative cell viability (MEAN) (SNUC2B; 0 nM tipifarnib + 100 nM MRTX1133): 0.7023; Relative cell viability (MEAN) (SNUC2B; 0 nM tipifarnib + 500 nM MRTX1133): 0.6567; Relative cell viability (MEAN) (SW1990; 0 nM lonafarnib + 2.5 nM MRTX1133): 0.848; Relative cell viability (MEAN) (SW1990; 0 nM lonafarnib + 5 nM MRTX1133): 0.7005; Relative cell viability (MEAN) (SW1990; 0 nM lonafarnib + 10 nM MRTX1133): 0.5543; Relative cell viability (MEAN) (SW1990; 0 nM tipifarnib + 2.5 nM MRTX1133): 0.7355; Relative cell viability (MEAN) (SW1990; 0 nM tipifarnib + 5 nM MRTX1133): 0.5922; Relative cell viability (MEAN) (SW1990; 0 nM tipifarnib + 10 nM MRTX1133): 0.4549

Which “Effect on tumor cell proliferation (in words)” value (H358; [6]) does the source give for `Cc1nc[nH]c1CN1CCN(C(=O)N[C@@H](CC(C)C)C(=O)O)[C@@H](Cc2ccccc2)C1=O` [GGTI-2418] here?
The value was “ineffective”.

What about the “Effect on tumor cell proliferation (in words)” value (SW1573 [1]; [6]) of the same compound?
Its value is “ineffective”.

With sotorasib [AMG510] as the compound, how does the “Drug sensitivity in 3D compared to 2D settings” value (SW1573 spheroids) read?
The value was “higher sensitivity”.

What about the “Weights of the tumors at the end of the experiment” value (H358 xenografts; [7]) of the same compound?
The value was 0.053.

What about the “Weights of the tumors at the end of the experiment” value (H358 xenografts; (day 1 = 1), animal 2, in g (unit assumed)) of the same compound?
Its value is 0.559.

And the “Weights of the tumors at the end of the experiment” value (H358 xenografts; [8])?
Its value is 0.038.

What about the “Weights of the tumors at the end of the experiment” value (H358 xenografts; [9]) of the same compound?
Its value is 0.157.

What about the “Weights of the tumors at the end of the experiment” value (H358 xenografts; [10]) of the same compound?
Its value is 0.254.

And the “Weights of the tumors at the end of the experiment” value (H358 xenografts; [11])?
The value was 0.029.

What about the “Weights of the tumors at the end of the experiment, MEAN” value (H358 xenografts; [12]) of the same compound?
The value was 0.1817.

And the “Inhibition of tumor growth (in words)” value (H358 xenografts; daily except weekends)?
Its value is “effectively inhibited tumors”.

And the “Weights of the tumors at the end of the experiment” value (SW1573 xenografts; [7])?
Its value is 0.1025.

And the “Weights of the tumors at the end of the experiment” value (SW1573 xenografts; [8])?
The value was 0.7238.

What about the “Weights of the tumors at the end of the experiment” value (SW1573 xenografts; [9]) of the same compound?
The value was 0.2227.

And the “Weights of the tumors at the end of the experiment” value (SW1573 xenografts; (day 1 = 1), animal 5, in g (unit assumed))?
The value was 0.144.

What about the “Weights of the tumors at the end of the experiment” value (SW1573 xenografts; [10]) of the same compound?
The value was 0.5804.

What about the “Weights of the tumors at the end of the experiment” value (SW1573 xenografts; [11]) of the same compound?
The value was 0.4184.

And the “Weights of the tumors at the end of the experiment, MEAN” value (SW1573 xenografts; [12])?
The value was 0.3653.

And the “Inhibition of tumor growth (in words)” value (SW1573 xenografts; daily except weekends)?
The value was “effectively inhibited tumors”.

What about the IC50 (SW1573 [2]; Cont (non-targeting) siRNA) of the same compound?
Its IC50 is 100 nM.

What about the IC50 (SW1573 [2]; HRAS siRNA) of the same compound?
The IC50 was 51.7 nM.

And the “Clinical efficacy in monotherapy” value (cancer patients; LUAD patients)?
The value was “good efficacy”.

What about the “Clinical efficacy in monotherapy” value (cancer patients; colorectal cancer patients) of the same compound?
Its value is “relatively less effective”.

What about the Clinical toxicity (cancer patients; tested clinically) of the same compound?
Its Clinical toxicity is “without rate limiting toxicities”.

And the “Sensitivity to treatment in 2D in vitro experiments” value (H358)?
The value was “highly sensitive”.

And the “Sensitivity to treatment in 2D in vitro experiments” value (SW1573 [1])?
Its value is “resistant”.
